Consider one substance from patent US20170157212A1, “CDK MODULATORS AND METHODS FOR THE TREATMENT OF CANCER” (Salk Institute for Biological Studies, priority 2015, published 2017).

The target of the test is T1, affinity-purified CDK12 kinase complex (Homo sapiens, UniProt Q9NYV4).
T1 construct: made in house
The test can be described thus: In vitro kinase assay: CDK12 phosphorylation of RNAPII GST-CTD. Conditions: human GST-CTD (52 repeat), increasing levels of recombinant CRIF1, immunoblot, dose-dependent. The test is classed as biochemical. The source says:
(A) CRIF1 and CDK12 have opposite effects on global RNAPII CTD-Ser2P levels in vivo. U2OS cells were transfected with indicated siRNAs for 48 hr, and RNAPII phosphorylation was monitored by immunoblot using phospho-specific CTD (Ser2P and Ser5P) antibodies. (B) Knockdown of CRIF1 up-regulates CHK1 expression and induction of p53. […] (C) Analysis of steady-state mRNA levels by qRT-PCR in extracts from U2OS cells exposed to control (CTL) or CRIF1-specific siRNAs, as indicated. (D) Depletion of CRIF1 enhances 4E-BP1 phosphorylation at S65 and T70 in vivo, as assessed by immunoblot using phospho-specific antibodies. (E) CRIF1 inhibits RNAPII CTD-Ser2 phosphorylation by CDK12 complexes in vitro. The human GST-CTD (52 repeat) protein was incubated in vitro with the affinity-purified HA-CDK12 kinase complex in the absence or presence of increasing levels of purified recombinant CRIF1, and analyzed by immunoblot with the indicated antisera. […] Analysis of GST-CTD Ser2 phosphorylation was carried out as described in (E), using the affinity-purified FLAG-CDK9 kinase. (G) CRIF1 inhibits 4E-BP1 phosphorylation by CDK12 in vitro. […] was monitored by immunoblot in the absence or in the presence of different levels of affinity-purified recombinant CRIF1. […]
(In general: Immunoblotting shows a protein as a band on a membrane.)

T1 sequence (Q9NYV4 whole entry): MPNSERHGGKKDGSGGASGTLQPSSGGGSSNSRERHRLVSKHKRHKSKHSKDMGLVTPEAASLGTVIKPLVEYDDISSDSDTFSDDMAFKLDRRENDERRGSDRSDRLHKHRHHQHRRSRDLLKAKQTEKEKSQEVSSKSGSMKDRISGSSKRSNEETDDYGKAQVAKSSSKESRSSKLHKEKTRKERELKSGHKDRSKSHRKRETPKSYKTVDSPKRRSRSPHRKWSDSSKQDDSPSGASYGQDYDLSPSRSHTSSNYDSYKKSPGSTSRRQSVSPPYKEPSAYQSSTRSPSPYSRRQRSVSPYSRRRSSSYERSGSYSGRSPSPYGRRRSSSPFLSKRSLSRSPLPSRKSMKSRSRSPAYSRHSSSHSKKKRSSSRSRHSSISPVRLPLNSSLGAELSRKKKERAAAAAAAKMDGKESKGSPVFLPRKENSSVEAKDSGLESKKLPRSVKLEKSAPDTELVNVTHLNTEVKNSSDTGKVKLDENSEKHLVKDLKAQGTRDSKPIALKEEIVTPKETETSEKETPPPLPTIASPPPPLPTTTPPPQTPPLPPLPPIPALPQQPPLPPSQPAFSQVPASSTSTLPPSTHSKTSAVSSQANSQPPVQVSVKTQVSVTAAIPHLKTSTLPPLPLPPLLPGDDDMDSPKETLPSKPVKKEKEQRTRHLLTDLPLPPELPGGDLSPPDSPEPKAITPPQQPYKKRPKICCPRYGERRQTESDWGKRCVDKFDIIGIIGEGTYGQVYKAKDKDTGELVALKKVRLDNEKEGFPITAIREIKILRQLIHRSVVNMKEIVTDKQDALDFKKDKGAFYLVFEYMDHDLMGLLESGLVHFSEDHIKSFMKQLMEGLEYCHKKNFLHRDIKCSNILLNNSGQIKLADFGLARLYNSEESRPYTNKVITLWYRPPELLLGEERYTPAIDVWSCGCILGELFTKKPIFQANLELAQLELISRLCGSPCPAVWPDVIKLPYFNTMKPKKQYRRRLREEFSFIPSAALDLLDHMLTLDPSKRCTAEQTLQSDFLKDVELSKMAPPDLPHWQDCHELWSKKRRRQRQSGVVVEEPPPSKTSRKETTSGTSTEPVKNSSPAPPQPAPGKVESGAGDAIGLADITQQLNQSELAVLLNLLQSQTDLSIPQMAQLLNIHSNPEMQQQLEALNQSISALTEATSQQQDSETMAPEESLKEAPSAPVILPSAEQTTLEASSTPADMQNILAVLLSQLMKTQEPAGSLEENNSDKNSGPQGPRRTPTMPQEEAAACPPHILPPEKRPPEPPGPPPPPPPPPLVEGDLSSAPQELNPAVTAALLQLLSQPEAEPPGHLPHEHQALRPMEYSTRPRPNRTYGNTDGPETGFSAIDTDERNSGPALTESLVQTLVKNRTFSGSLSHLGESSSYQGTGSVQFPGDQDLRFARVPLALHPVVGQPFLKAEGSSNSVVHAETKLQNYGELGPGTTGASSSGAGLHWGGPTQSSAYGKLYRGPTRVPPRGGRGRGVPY
T1 sequence (O75909 whole entry partner): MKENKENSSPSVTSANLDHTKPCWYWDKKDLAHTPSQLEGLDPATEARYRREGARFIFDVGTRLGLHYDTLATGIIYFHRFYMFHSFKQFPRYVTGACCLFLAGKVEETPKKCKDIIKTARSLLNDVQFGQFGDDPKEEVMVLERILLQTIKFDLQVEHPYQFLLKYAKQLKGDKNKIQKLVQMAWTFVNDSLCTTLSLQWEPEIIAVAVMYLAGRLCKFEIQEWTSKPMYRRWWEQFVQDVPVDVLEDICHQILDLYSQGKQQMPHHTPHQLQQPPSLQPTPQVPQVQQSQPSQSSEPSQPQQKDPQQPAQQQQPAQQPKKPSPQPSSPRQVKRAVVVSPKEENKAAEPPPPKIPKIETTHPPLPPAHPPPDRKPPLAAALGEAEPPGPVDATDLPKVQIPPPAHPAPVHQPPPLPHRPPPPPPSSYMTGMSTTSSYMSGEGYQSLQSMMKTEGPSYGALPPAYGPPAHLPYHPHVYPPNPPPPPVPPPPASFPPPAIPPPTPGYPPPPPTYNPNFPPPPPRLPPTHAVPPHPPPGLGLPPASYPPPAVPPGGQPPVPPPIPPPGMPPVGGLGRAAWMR

As to “Growth Arrest and DNA Damage-Inducible Proteins-Interacting Protein 1 [CRIF1]”, the “CDK12-mediated phosphorylation of the human GST-CTD substrate (RNAPII CTD-Ser2)” value is “inhibits”. The “CDK12-mediated phosphorylation of the human GST-CTD substrate (RNAPII CTD-Ser2)” value (listed as recombinant CRIF1) was “potently inhibited”.
